Measurements taken from paper PMC7038139, “Novel Peptide CM 7 Targeted c-Met with Antitumor Activity” (Molecules, 2020).
Entries after “also recorded” stand apart in the source; their conditions may differ.

Legend:
U87 cells = test: Cell proliferation assay, U87 (HGF-stimulated); type: cell-based, human; conditions: CM 7, various concentrations; 20 ng/mL HGF; 4 days; serum-free medium; cell count; means of six determinations
Protocol: (§1) Human gastric cancer cell line MKN-45 cells were from the Chinese Academy of Medical Sciences, Beijing, China. Human gastric cancer cell line MKN-28 cells, the human glioma cell line U87 cells, and MDCK cells were obtained from the American Type Culture Collection (ATCC). The MKN-45 and MKN-28 cells were grown under a humidified atmosphere of 5% CO2 at 37 °C in RPMI 1640 medium (Biological Industries, Israel), supplemented with 10% fetal bovine serum (FBS, Biological Industries, Israel), 2 mmol/L L-glutamine (Gibco, Life Technologies, Grand Island, NY, USA), 100 U/mL penicillin, and 100 μg/mL streptomycin (Invitrogen, Carlsbad, CA, USA). MDCK and U87 cells were cultured under a humidified atmosphere of 5% CO2 at 37 °C in Dulbecco’s modified Eagle’s medium (DMEM) (Gibco, Life Technologies, Grand Island, NY, USA), supplemented with 10% FBS, 2 mmol/L L-glutamine (Gibco, Life Technologies, Grand Island, NY, USA), 100 U/mL penicillin, and 100 μg/mL streptomycin (Invitrogen, Carlsbad, CA, USA).
(§2) As described in the literature, MKN-45, MKN-28, and U87 cells were seeded into 48-well culture plates (6500 cells/well) and cultured overnight. […] After 4 days, the cells were trypsinized and counted by a cell counter. […]

human c-Met protein = test: Affinity to c-Met protein (as stated in abstract and discussion); type: binding; conditions: in words only; Kd not given
MDCK cells = test: Cell scatter assay (HGF-induced); type: cell-based, canine; conditions: HGF 100 ng/mL, 24 h, 37 °C
Protocol: MDCK cells were detached from the tissue culture plate and seeded in 96-well plates at the final concentration of 1.5 × 10^3 cells/well overnight. Different concentrations of CM 7 without or with HGF (100 ng/mL) were added to the preset wells. After incubating for 24 h at 37 °C and 5% CO2, 4% paraformaldehyde was used to fix the cells, which were then stained with 0.2% crystal violet. The plates were washed with clean water. When dried, an Olympus IX53 microscope was used to capture the images.

MKN-45 cells [1] = test: Cell proliferation assay, MKN-45; type: cell-based, Human; conditions: CM 7, various concentrations; 4 days; serum-free medium; cell count; means of six determinations
Protocol: as §1, §2

[2] = system: c-Met and its downstream signaling molecules in MKN-45 xenografts; test: Western blot of c-Met signaling in xenograft tumors; type: in vivo, Human; conditions: n = 3
Protocol: Western blot analysis was performed using an extraction buffer as described. MKN-45, MKN-28 and U87 cells were cultured in serum-free medium overnight, then treated with the indicated dose of peptide CM 7 for 24 h at 37 °C after stimulated without or with HGF for 15 min. Next, total cell lysates were separated by 12% SDS-polyacrylamide gel (SDS-PAGE) and transferred to polyvinylidene difluoride (PVDF) membranes. The PVDF membranes were probed with following primary antibodies: anti-phospho-Met (Tyr1234/1235, (Cell Signaling Technology, Beverly, MA, USA), anti-Met (Affinity, USA), anti-phospho-AKT (Ser473, (Affinity, USA)), anti-AKT (Affinity, USA), anti-phospho-Erk1/2 (Thr202/Tyr204, (Affinity, USA)), anti-Erk1/2 (Affinity, USA), anti-E-cadherin (WanleiBio, Shengyang, China), and anti-GAPDH (Multi Sciences, Hangzhou, China). Then, horseradish-peroxidase-conjugated anti-rabbit IgG was used as a second antibody. The immunoreactive proteins were exposed using an enhanced chemiluminescence detection reagent (WanleiBio, Shengyang, China). After sacrificing the mice and isolating the tumor tissue, Western blot was performed as previously described.

MKN-28 cells = test: Cell proliferation assay, MKN-28; type: cell-based, Human; conditions: CM 7, various concentrations; 4 days; serum-free medium; cell count; means of six determinations
Protocol: as §1, §2

MKN-45 cells [3] = test: Transwell invasion assay; type: cell-based, Human; conditions: Matrigel-coated Transwell, 8 μm pores; 48 h; n = 3; dose-dependent
Protocol: For the invasion assay, a chamber was placed into a 24-well culture plate with 600 μL RPMI 1640 medium containing 10% FBS. MKN-45 cells were resuspended in serum-free medium and cultured on the upper compartment of the Transwell chamber (1.0 × 10^5 cells/well; pore size, 8 μm; Merck Millipore, Germany) coated with Matrigel. CM 7 and Crizotinib were added to the top side of the membrane at the indicated concentrations. After 48 h, the noninvaded cells were removed, and the invaded cells were fixed with ethanol and stained with crystal violet solution (0.1%) for 15 min at room temperature. The experiment was performed in triplicate, and images were obtained using an Olympus IX53 microscope (Olympus, Japan).

MKN-45 cells [4] = test: Cell cycle distribution assay; type: cell-based, Human; conditions: 48 h; compared with the control group; n = 3
Protocol: According to the cell cycle detection kit (Keygen) instructions, MKN-45 cells were collected and seeded in a six-well culture plate at the concentration 2 × 10^6/mL overnight. Then, the cells were washed with PBS and treated with peptide CM 7 at the indicated concentration for 48 h. The experiment was performed in triplicate. A MACS Quant flow cytometer (Miltenyi Biotec GmbH, Bergisch Gladbach, Germany) was used to detect the cell cycle profile, and FlowJo software version 7.6 (FlowJo LLC, Ashland, USA) was used to analyze the data.

DQIIANN [CM 7, Novel peptide DQIIANN targeting the tyrosine kinase receptor c-Met]
Inhibition of cell proliferation (U87 cells): inhibit the proliferation of MKN-45 or U87 cells to a certain extent with considerable dose dependence
Affinity to c-Met (human c-Met protein): specific binding to c-Met with high affinity
Inhibition of growth of cell pseudopodia (MDCK cells; 1 μM): completely inhibited
Inhibition of HGF-induced cell scattering (MDCK cells; dose-dependent): moderate regulation; also recorded: remarkably inhibit the HGF-induced cell scattering of MDCK cells in a dose-dependent manner
Inhibition of cell proliferation (MKN-45 cells [1]): moderate regulation; also recorded: inhibit the proliferation of MKN-45 or U87 cells to a certain extent with considerable dose dependence
Intratumoral expression of E-cadherin [2]: significantly increased
Intratumoral phosphorylation of c-Met, Akt or Erk [2]: markedly inhibited
Inhibition of cell proliferation (MKN-28 cells): no effect
Inhibition of cell invasion (MKN-45 cells [3]): moderate regulation; also recorded: significantly inhibit cell invasion
Cell cycle arrest (MKN-45 cells [4]): significantly arrested in the S phase
